Data: article PMC10211317, “Identification of ARUK2002821 as an isoform-selective PI5P4Kα inhibitor” (RSC Medicinal Chemistry, 2023)

Columns and labels:
Test in all cases: Premier Screen kinase panel (MRC PPU)
Assay type in all cases: biochemical
SRPK1 = SRPK1 (Homo sapiens, UniProt Q96SB4); conditions: SRPK1 (Entrez SRPK1), read-out: Residual activity (%)
Experimental: (§1) room temperature with shaking for 30 minutes. The kinase concentration in the eluates was measured by qPCR.
(§2) using ADP-GloTM assay at the MRC PPU International Centre for Kinase Profiling, University of Dundee.
(§3) Conducted by MRC PPU International Centre
(§4) Conducted by MRC PPU International Centre for […]

PKBa = PKBa (Homo sapiens, UniProt P31749); conditions: PKBa (Entrez AKT1), read-out: Residual activity (%)
Experimental: as §1, §2, §3, §4

NEK6 = NEK6 (Homo sapiens, UniProt Q9HC98); conditions: NEK6 (Entrez NEK6), read-out: Residual activity (%)
Experimental: as §1, §2, §3, §4

EPH-B4 = EPH-B4 (Homo sapiens, UniProt P54760); conditions: EPH-B4 (Entrez EPHB4), read-out: Residual activity (%)
Experimental: as §1, §2, §3, §4

TSSK1 = TSSK1 (Homo sapiens, UniProt Q9BXA7); conditions: TSSK1 (Entrez TSSK1B), read-out: Residual activity (%)
Experimental: as §1, §2, §3, §4

STK33 = STK33 (Homo sapiens, UniProt Q9BYT3); conditions: STK33 (Entrez STK33), read-out: Residual activity (%)
Experimental: as §1, §2, §3, §4

ROCK 2 = ROCK 2 (Rattus norvegicus, UniProt Q62868); conditions: ROCK 2 (Entrez ROCK2), read-out: Residual activity (%)
Experimental: as §1, §2, §3, §4

TTK = TTK (Homo sapiens, UniProt P33981); conditions: TTK (Entrez TTK), read-out: Residual activity (%)
Experimental: as §1, §2, §3, §4

CHK2 = CHK2 (Homo sapiens, UniProt O96017); conditions: CHK2 (Entrez CHEK2), read-out: Residual activity (%)
Experimental: as §1, §2, §3, §4

AMPK (hum) = AMPK (hum) (Homo sapiens, UniProt Q13131); conditions: AMPK (hum) (Entrez PRKAA1 + PRKAB2 + PRKAG1), read-out: Residual activity (%)
Experimental: as §1, §2, §3, §4

TESK1 = TESK1 (Homo sapiens, UniProt Q15569); conditions: TESK1 (Entrez TESK1), read-out: Residual activity (%)
Experimental: as §1, §2, §3, §4

TGFBR1 = TGFBR1 (Homo sapiens, UniProt P36897); conditions: TGFBR1 (Entrez TGFBR1), read-out: Residual activity (%)
Experimental: as §1, §2, §3, §4

CHK1 = CHK1 (Homo sapiens, UniProt O14757); conditions: CHK1 (Entrez CHEK1), read-out: Residual activity (%)
Experimental: as §1, §2, §3, §4

TLK1 = TLK1 (Homo sapiens, UniProt Q9UKI8); conditions: TLK1 (Entrez TLK1), read-out: Residual activity (%)
Experimental: as §1, §2, §3, §4

PINK = PINK (Tribolium castaneum, UniProt D6WMX4); conditions: PINK (Entrez PINK1), read-out: Residual activity (%)
Experimental: as §1, §2, §3, §4

IKKe = IKKe (Homo sapiens, UniProt Q14164); conditions: IKKe (Entrez IKBKE), read-out: Residual activity (%)
Experimental: as §1, §2, §3, §4

IRAK1 = IRAK1 (Homo sapiens, UniProt P51617); conditions: IRAK1 (Entrez IRAK1), read-out: Residual activity (%)
Experimental: as §1, §2, §3, §4

SGK1 = SGK1 (Homo sapiens, UniProt O00141); conditions: SGK1 (Entrez SGK1), read-out: Residual activity (%)
Experimental: as §1, §2, §3, §4

FGF-R1 = FGF-R1 (Homo sapiens, UniProt P11362); conditions: FGF-R1 (Entrez FGFR1), read-out: Residual activity (%)
Experimental: as §1, §2, §3, §4

IKKb = IKKb (Homo sapiens, UniProt O14920); conditions: IKKb (Entrez IKBKB), read-out: Residual activity (%)
Experimental: as §1, §2, §3, §4

MARK2 = MARK2 (Homo sapiens, UniProt Q7KZI7); conditions: MARK2 (Entrez MARK2), read-out: Residual activity (%)
Experimental: as §1, §2, §3, §4

CSK = CSK (Homo sapiens, UniProt P41240); conditions: CSK (Entrez CSK), read-out: Residual activity (%)
Experimental: as §1, §2, §3, §4

ULK1 = ULK1 (Homo sapiens, UniProt O75385); conditions: ULK1 (Entrez ULK1), read-out: Residual activity (%)
Experimental: as §1, §2, §3, §4

p38a MAPK = p38a MAPK (Homo sapiens, UniProt Q16539); conditions: p38a MAPK (Entrez MAPK14), read-out: Residual activity (%)
Experimental: as §1, §2, §3, §4

HIPK2 = HIPK2 (Homo sapiens, UniProt Q9H2X6); conditions: HIPK2 (Entrez HIPK2), read-out: Residual activity (%)
Experimental: as §1, §2, §3, §4

MAP4K3 = MAP4K3 (Homo sapiens, UniProt Q8IVH8); conditions: MAP4K3 (Entrez MAP4K3), read-out: Residual activity (%)
Experimental: as §1, §2, §3, §4

TIE2 = TIE2 (Homo sapiens, UniProt Q02763); conditions: TIE2 (Entrez TEK), read-out: Residual activity (%)
Experimental: as §1, §2, §3, §4

NUAK1 = NUAK1 (Homo sapiens, UniProt O60285); conditions: NUAK1 (Entrez NUAK1), read-out: Residual activity (%)
Experimental: as §1, §2, §3, §4

TAK1 = TAK1 (Homo sapiens, UniProt O43318); conditions: TAK1 (Entrez MAP3K7), read-out: Residual activity (%)
Experimental: as §1, §2, §3, §4

EIF2AK3 = EIF2AK3 (Homo sapiens, UniProt Q9NZJ5); conditions: EIF2AK3 (Entrez EIF2AK3), read-out: Residual activity (%)
Experimental: as §1, §2, §3, §4

PKCγ = PKCγ (Homo sapiens, UniProt P05129); conditions: read-out: Residual activity (%)
Experimental: as §1, §2, §3, §4

IKKe, sequence (Q14164 whole entry): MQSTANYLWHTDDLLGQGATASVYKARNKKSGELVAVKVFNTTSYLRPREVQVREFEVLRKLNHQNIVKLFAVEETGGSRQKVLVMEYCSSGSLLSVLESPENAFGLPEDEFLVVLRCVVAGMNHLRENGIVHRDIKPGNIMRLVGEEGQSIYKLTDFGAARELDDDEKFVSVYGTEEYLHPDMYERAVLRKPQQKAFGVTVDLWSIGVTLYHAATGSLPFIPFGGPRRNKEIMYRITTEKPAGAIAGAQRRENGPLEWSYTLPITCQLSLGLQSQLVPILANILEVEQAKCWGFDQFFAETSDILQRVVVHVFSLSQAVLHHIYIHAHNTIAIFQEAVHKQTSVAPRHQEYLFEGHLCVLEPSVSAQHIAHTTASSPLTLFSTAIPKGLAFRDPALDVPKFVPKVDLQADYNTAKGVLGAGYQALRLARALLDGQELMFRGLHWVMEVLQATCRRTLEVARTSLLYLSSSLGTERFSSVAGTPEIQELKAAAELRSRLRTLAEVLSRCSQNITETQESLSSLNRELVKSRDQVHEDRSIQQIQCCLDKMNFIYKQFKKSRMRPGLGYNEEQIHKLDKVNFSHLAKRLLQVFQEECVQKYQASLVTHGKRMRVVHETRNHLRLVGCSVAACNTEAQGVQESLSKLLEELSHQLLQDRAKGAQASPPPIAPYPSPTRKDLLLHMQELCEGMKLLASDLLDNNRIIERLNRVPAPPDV
MAP4K3, sequence (Q8IVH8 whole entry): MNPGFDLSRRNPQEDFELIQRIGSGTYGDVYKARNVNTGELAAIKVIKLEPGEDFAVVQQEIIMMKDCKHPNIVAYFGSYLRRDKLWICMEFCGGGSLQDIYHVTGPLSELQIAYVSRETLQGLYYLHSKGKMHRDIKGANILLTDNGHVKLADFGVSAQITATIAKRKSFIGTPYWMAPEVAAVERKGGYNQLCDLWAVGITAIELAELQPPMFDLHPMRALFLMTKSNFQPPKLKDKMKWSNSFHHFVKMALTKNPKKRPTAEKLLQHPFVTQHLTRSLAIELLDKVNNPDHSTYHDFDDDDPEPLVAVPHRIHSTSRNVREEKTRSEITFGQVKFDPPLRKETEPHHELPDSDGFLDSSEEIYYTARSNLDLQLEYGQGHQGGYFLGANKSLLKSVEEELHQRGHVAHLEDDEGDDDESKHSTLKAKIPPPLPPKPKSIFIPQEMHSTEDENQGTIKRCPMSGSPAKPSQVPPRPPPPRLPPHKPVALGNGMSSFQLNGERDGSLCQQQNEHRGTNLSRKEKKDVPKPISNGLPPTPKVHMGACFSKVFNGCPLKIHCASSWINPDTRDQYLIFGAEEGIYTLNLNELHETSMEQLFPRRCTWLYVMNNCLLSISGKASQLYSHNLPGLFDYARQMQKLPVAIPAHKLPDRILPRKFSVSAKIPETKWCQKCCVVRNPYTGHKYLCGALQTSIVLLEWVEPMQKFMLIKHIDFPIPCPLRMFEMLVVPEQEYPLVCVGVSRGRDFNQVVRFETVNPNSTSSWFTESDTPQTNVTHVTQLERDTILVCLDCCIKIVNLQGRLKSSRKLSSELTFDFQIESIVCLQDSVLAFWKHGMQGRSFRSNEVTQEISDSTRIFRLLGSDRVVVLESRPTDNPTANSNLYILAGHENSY
HIPK2, sequence (Q9H2X6 whole entry): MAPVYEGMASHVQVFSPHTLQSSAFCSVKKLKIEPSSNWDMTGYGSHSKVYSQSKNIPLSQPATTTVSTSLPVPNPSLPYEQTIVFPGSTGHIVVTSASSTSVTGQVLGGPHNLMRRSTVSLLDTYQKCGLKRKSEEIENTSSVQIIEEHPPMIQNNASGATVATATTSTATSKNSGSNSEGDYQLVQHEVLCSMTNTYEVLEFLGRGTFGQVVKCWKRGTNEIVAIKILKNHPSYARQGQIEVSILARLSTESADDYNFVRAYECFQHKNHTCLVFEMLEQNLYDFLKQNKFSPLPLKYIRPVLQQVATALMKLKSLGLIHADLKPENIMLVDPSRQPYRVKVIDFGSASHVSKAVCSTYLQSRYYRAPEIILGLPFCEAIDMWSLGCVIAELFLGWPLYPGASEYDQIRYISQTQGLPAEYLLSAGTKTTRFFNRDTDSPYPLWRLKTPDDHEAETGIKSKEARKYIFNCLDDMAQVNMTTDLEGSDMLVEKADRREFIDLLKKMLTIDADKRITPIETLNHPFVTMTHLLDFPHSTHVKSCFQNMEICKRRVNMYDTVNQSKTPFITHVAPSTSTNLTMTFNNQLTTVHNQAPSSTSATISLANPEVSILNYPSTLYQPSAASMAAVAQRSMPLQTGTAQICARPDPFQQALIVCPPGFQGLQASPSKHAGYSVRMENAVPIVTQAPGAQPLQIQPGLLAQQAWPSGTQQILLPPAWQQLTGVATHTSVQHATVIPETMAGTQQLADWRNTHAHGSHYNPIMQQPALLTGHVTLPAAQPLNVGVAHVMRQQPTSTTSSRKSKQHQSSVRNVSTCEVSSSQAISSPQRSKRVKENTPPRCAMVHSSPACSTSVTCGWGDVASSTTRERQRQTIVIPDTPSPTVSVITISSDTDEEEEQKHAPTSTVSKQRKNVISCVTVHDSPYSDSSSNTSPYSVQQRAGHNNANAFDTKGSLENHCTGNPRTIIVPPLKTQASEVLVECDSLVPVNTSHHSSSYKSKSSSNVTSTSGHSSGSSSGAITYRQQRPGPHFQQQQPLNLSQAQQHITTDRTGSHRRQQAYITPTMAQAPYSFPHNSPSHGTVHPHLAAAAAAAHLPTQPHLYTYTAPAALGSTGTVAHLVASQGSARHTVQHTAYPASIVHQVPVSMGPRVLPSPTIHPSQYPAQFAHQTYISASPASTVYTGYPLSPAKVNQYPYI
ULK1, sequence (O75385 whole entry): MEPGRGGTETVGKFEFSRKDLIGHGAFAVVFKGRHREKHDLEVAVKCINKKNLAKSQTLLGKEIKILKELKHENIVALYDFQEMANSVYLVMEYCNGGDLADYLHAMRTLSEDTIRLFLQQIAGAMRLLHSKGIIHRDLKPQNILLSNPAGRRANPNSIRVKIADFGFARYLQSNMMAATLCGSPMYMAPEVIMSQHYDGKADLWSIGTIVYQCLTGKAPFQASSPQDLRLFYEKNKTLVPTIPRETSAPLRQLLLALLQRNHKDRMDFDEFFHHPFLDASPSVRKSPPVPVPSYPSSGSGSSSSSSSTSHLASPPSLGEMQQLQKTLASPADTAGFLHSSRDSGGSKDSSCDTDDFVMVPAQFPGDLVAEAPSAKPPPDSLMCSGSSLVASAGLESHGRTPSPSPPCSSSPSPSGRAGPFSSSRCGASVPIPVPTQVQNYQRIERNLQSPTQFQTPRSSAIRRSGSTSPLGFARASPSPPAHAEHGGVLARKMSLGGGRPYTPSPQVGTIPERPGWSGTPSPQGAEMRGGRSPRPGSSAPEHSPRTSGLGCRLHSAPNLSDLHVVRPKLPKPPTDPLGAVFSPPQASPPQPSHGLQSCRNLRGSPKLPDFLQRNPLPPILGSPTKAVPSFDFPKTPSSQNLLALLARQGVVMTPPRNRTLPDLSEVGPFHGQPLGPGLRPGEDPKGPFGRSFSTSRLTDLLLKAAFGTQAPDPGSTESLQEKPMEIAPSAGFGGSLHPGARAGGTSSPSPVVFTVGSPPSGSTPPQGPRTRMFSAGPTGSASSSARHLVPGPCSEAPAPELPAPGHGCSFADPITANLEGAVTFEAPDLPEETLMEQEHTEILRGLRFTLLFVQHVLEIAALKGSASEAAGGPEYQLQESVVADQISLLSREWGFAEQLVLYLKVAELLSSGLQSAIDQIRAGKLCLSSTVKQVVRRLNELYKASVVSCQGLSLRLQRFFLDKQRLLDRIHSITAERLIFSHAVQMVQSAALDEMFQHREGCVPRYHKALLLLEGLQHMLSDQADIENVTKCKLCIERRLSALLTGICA
CHK2, sequence (O96017 whole entry): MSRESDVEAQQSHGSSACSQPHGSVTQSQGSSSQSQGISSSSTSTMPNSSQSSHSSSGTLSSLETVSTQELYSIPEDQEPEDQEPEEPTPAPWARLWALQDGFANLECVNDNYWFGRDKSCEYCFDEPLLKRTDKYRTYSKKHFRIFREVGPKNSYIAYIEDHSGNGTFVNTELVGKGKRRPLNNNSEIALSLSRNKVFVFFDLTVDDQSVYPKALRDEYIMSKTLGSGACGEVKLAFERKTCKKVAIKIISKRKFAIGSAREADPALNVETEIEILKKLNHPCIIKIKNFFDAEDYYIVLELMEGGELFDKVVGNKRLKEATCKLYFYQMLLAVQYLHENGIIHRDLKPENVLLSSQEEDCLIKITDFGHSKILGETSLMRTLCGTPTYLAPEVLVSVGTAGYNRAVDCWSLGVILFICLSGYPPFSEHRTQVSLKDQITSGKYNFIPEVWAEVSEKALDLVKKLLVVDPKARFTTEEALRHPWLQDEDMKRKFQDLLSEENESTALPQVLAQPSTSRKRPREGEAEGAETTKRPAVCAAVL
NUAK1, sequence (O60285 whole entry, species assumed): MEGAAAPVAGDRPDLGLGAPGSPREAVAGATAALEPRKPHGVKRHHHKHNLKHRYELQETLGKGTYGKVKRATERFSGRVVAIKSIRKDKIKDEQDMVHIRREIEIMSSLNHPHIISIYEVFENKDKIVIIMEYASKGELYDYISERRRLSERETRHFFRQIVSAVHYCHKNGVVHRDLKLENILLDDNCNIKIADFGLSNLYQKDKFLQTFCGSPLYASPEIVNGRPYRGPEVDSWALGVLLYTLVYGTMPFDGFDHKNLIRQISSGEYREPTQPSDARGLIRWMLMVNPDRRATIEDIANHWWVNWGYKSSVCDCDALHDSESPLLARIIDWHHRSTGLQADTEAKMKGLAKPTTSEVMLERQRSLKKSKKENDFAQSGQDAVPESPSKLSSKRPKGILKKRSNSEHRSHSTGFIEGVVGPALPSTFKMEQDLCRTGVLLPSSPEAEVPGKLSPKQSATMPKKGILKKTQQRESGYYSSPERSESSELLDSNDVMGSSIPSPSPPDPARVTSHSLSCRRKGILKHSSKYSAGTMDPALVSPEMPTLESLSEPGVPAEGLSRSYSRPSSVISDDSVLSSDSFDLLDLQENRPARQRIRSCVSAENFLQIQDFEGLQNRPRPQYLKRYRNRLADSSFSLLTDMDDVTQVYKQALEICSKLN

COc1ccc(Nc2ncnc3c2ccn3-c2ccc(C)c(C)c2)cc1Cl [compound 36]
remaining activity at 1 µM (SRPK1): 99%
remaining activity at 1 µM (PKBa): 90%
remaining activity at 1 µM (NEK6): 104%
remaining activity at 1 µM (EPH-B4): 99%
remaining activity at 1 µM (TSSK1): 98%
remaining activity at 1 µM (STK33): 93%
remaining activity at 1 µM (ROCK 2): 96%
remaining activity at 1 µM (TTK): 87%
remaining activity at 1 µM (CHK2): 96%
remaining activity at 1 µM (AMPK (hum)): 94%
remaining activity at 1 µM (TESK1): 88%
remaining activity at 1 µM (TGFBR1): 87%
remaining activity at 1 µM (CHK1): 82%
remaining activity at 1 µM (TLK1): 96%
remaining activity at 1 µM (PINK): 73%
remaining activity at 1 µM (IKKe): 89%
remaining activity at 1 µM (IRAK1): 98%
remaining activity at 1 µM (SGK1): 97%
remaining activity at 1 µM (FGF-R1): 95%
remaining activity at 1 µM (IKKb): 75%
remaining activity at 1 µM (MARK2): 127%
remaining activity at 1 µM (CSK): 104%
remaining activity at 1 µM (ULK1): 102%
remaining activity at 1 µM (p38a MAPK): 98%
remaining activity at 1 µM (HIPK2): 90%
remaining activity at 1 µM (MAP4K3): 92%
remaining activity at 1 µM (TIE2): 105%
remaining activity at 1 µM (NUAK1): 138%
remaining activity at 1 µM (TAK1): 91%
remaining activity at 1 µM (EIF2AK3): 76%
remaining activity at 1 µM (PKCγ): 107%
